Data as given in ChEMBL document CHEMBL1145207, “Discovery of novel quinoline-based estrogen receptor ligands using peptide interaction profiling” (J Med Chem, 2005).

Legend:
Estrogen receptor beta [1] = molecular target: T1, Estrogen receptor beta (Homo sapiens, UniProt Q92731)
Estrogen receptor [2] = molecular target: Estrogen receptor (Homo sapiens, UniProt Q92731+P03372); details: ishikawa
Estrogen receptor [3] = molecular target: T2, Estrogen receptor (Homo sapiens, UniProt P03372)
T2 sequence (P03372 whole entry): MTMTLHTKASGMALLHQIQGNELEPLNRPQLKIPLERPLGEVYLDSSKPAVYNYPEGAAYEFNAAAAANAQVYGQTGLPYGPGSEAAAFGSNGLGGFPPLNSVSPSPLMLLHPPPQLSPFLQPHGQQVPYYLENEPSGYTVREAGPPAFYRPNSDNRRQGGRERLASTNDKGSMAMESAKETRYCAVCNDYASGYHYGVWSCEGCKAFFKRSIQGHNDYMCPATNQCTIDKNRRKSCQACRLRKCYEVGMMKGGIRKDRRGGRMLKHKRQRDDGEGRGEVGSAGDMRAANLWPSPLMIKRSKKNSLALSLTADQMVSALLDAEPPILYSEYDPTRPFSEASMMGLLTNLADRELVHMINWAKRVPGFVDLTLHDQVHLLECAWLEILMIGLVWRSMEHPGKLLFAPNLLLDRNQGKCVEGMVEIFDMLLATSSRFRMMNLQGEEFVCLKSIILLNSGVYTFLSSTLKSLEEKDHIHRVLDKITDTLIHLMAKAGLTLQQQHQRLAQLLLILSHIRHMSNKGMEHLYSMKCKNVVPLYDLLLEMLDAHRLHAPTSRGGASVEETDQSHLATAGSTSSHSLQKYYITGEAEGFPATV
Description: Binding affinity for human estrogen receptor alpha

[4] = molecular target: T3, Estrogen receptor (Homo sapiens) (UniProt P03372)
T3 sequence (whole entry): T2 sequence (P03372 whole entry)
Description: Mean fluorescence intensity corrected to basal for GW-5638 selective peptide binding to human estrogen receptor alpha

Estrogen receptor beta [5] = molecular target: T1, Estrogen receptor beta; assay: Binding affinity for human estrogen receptor beta

T1 sequence (Q92731 whole entry): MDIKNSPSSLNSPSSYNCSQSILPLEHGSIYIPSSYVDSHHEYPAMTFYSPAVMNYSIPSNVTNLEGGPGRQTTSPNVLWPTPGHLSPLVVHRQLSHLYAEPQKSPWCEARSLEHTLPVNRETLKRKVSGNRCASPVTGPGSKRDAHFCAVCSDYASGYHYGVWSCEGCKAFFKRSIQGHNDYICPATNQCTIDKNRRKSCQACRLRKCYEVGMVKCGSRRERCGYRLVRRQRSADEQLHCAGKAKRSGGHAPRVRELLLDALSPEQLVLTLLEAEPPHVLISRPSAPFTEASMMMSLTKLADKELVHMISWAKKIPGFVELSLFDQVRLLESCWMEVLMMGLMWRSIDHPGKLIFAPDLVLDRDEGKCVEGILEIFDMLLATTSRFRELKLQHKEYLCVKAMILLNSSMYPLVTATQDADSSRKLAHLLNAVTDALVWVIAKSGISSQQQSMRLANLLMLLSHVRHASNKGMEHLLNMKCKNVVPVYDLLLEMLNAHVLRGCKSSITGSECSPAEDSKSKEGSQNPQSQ

| Structure (SMILES) | Ki (Estrogen receptor beta [1]) [nM] | Log IC50 (Estrogen receptor [2]) | Ki (Estrogen receptor [3]) [nM] | MFI [4] | Ki (Estrogen receptor beta [5]) [nM] |
| --- | --- | --- | --- | --- | --- |
| CC/C(=C(\c1ccc(O)cc1)c1ccc(/C=C/C(=O)O)cc1)c1ccccc1 |  |  |  | 1320 |  |
| O=C(O)/C=C/c1ccc(Oc2c(-c3ccccc3)c(-c3ccccc3)nc3cc(O)ccc23)cc1 | 631 | -5.6 | 3160 |  |  |
| CCc1nc2cc(O)ccc2c(Oc2ccc(/C=C/C(=O)O)cc2)c1-c1ccccc1 |  |  |  | 1380 |  |
| CCc1nc2cc(O)ccc2c(Oc2cccc(/C=C/C(=O)O)c2)c1-c1ccccc1 |  |  | 1580 |  | 1580 |
| CCc1nc2cc(O)ccc2c(Oc2ccc(/C=C/C(=O)O)cc2)c1-c1cccc(C(F)(F)F)c1 | 251 | -8.1 | 100 | 1590 |  |
| CCc1nc2cc(O)ccc2c(Oc2ccc(/C=C/C(N)=O)cc2)c1-c1ccccc1 | 25.1 | -7.1 | 15.8 | 540 |  |

More lines, in order of falling Ki (Estrogen receptor beta [1]), values ahead:

| Ki (Estrogen receptor beta [1]) [nM] | Log IC50 (Estrogen receptor [2]) | Ki (Estrogen receptor [3]) [nM] | MFI [4] | Structure (SMILES) | Ki (Estrogen receptor beta [5]) [nM] |
| --- | --- | --- | --- | --- | --- |
| 25.1 | -8.4 | 25.1 | 390 | CCc1nc2cc(O)ccc2c(Oc2ccc(/C=C/C(=O)N3CCCCC3)cc2)c1-c1ccccc1 |  |
| 20 | -8.4 | 10 | 350 | CCc1nc2cc(O)ccc2c(Oc2ccc(/C=C/C(=O)N(C)C)cc2)c1-c1ccccc1 |  |
| 15.8 | -7.7 | 10 | 710 | CCc1nc2cc(O)ccc2c(Oc2ccc(/C=C/C(=O)NC(C)C)cc2)c1-c1ccccc1 |  |
| 10 | -8.5 | 7.94 | 0 | CCc1nc2cc(O)ccc2c(Oc2ccc(OCCN(C)C)cc2)c1-c1ccccc1 |  |
